Columns and labels:
[1] = system: HAUSP TRAF-like domain (residues 1–206); assay: gel filtration binding assay with HAUSP (residues 1–206); settings: Superdex-200, 25 mM Tris pH 8.0, 100 mM NaCl, 2 mM DTT, 4 °C, SDS-PAGE/Coomassie, protein alone, no competitor
Description: (§1) Size-exclusion chromatography (gel filtration), using a Superdex-200 column (10/30, Amersham Pharmacia Biotech, Piscataway, New Jersey, United States), was employed to carry out all the in vitro binding assays. Proteins subjected to binding tests were incubated at 4 °C for at least 45 min to allow equilibrium to be reached. The flow rate was 0.5 ml/min, and the buffer contained 25 mM Tris (pH 8.0), 100 mM NaCl, and 2 mM DTT. All fractions were collected at 0.5 ml each. Aliquots of relevant fractions were mixed with SDS sample buffer and subjected to SDS-polyacrylamide gel electrophoresis. The proteins were visualized by Coomassie Blue staining. The column was calibrated with molecular-mass standards.

full-length HAUSP = assay: gel filtration binding assay of MDM2 with full-length HAUSP; settings: Superdex-200, 25 mM Tris pH 8.0, 100 mM NaCl, 2 mM DTT, 4 °C
Description: as §1

[2] = target: T1, HAUSP TRAF-like domain (residues 53–206) (Homo sapiens, UniProt Q93009); assay: gel filtration binding assay of MDM2 fragments with HAUSP TRAF-like domain; settings: Superdex-200, HAUSP residues 53–206, 25 mM Tris pH 8.0, 100 mM NaCl, 2 mM DTT, 4 °C
T1 construct: GST (N); made in house; host or cells: Escherichia coli BL21(DE3), vector pGEX-2T
Description: as §1

T1 sequence (Q93009 53-206): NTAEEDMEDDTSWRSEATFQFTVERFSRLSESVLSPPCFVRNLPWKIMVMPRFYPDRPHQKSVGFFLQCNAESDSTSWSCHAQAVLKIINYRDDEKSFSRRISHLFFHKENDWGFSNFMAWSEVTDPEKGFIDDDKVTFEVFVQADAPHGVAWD

Row | complex formation with HAUSP (residues 1–206) [1] | complex formation with full-length HAUSP (full-length HAUSP) | complex formation with HAUSP TRAF-like domain [2] | Substance
1 | form a stable complex | – | – | MDM2 (residues 170–423): MDM2 fragment, residues 170–423
2 | – | formed a stable complex | formed a stable complex | MDM2 (residues 170–432): 33-kDa fragment of MDM2 (residues 170–432)

Reference: publication PMC1334386 (PLoS Biology, 2006)
